{"source": "paper PMC9546217", "about": "“Exploring novel nitrofuranyl sulfonohydrazides as anti‐Leishmania and anti‐cancer agents: Synthesis, in vitro efficacy and hit identification” (Chemical Biology & Drug Design, 2022)", "origin": "cited, not measured here", "key": {"[1]": {"system": "Staphylococcus aureus (ATCC 25923)", "parameters": "method as in Alsaeedi et al., [2015]", "settings": "diffusion method; ref Alsaeedi et al., [2015]; cited from earlier work"}, "[2]": {"system": "Bacillus subtilis (ATCC 6633)", "parameters": "method as in Alsaeedi et al., [2015]", "settings": "diffusion method; ref Alsaeedi et al., [2015]; cited from earlier work"}}}
{"smiles": "Cc1ccc(S(=O)(=O)N/N=C/c2ccc([N+](=O)[O-])o2)cc1", "note": "[2c, (E)-4-Methyl-N'-[(5-nitrofuran-2-yl)methylene]benzenesulfonohydrazide]", "values": [{"measurement": "antimicrobial activity (inhibition zone)", "setting": "[1]", "value": "no activity"}, {"measurement": "antimicrobial activity (inhibition zone)", "setting": "[2]", "value": "no activity"}]}
